# Measurements from the NIST ThermoML archive (doi:10.1016/j.fluid.2010.07.005).
# Numbers after ± are expanded uncertainties.
# Tests used:
# [1] = excess molar enthalpy (molar enthalpy of mixing); xn = mol fraction of the nth substance listed; conditions: 298.15 K; 101.33 kPa; Liquid; Flow calorimetry; x2 = 0
# [2] = 101.33 kPa, Liquid; for viscosity: Capillary tube (Ostwald / Ubbelohde) method; for mass density: Speicific gravity balance
# [3] = molar heat capacity at constant pressure; conditions: 101.33 kPa, Liquid, Vacuum adiabatic calorimetry
compound,measurement,setting,value
CO [methanol] + COP(=O)([O-])OC.Cn1cc[n+](C)c1,excess molar enthalpy,[1],0 ± 0.00526 kcal/mol
"COP(=O)([O-])OC.Cn1cc[n+](C)c1 [1,3-dimethylimidazolium dimethylphosphate]",viscosity,[2]; 298.15 K,271.86 ± 8 mPa·s
same,mass density,[2]; 298.15 K,1258.7 ± 1.2 kg/m3
same,viscosity,[2]; 303.15 K,188.3 ± 4.5 mPa·s
same,mass density,[2]; 303.15 K,1255.9 ± 1.2 kg/m3
same,viscosity,[2]; 308.15 K,139.49 ± 2.6 mPa·s
same,mass density,[2]; 308.15 K,1253 ± 1.2 kg/m3
same,viscosity,[2]; 313.15 K,110.25 ± 1.6 mPa·s
same,mass density,[2]; 313.15 K,1249.1 ± 1.2 kg/m3
same,viscosity,[2]; 318.15 K,84.44 ± 0.88 mPa·s
same,mass density,[2]; 318.15 K,1245.2 ± 1.2 kg/m3
same,viscosity,[2]; 323.15 K,69.99 ± 0.59 mPa·s
same,mass density,[2]; 323.15 K,1241.5 ± 1.2 kg/m3
same,molar heat capacity at constant pressure,[3]; 298.15 K,282.83 ± 13 J/K/mol
same,molar heat capacity at constant pressure,[3]; 303.15 K,296.61 ± 13 J/K/mol
same,molar heat capacity at constant pressure,[3]; 313.15 K,310.83 ± 13 J/K/mol
same,molar heat capacity at constant pressure,[3]; 323.15 K,321.05 ± 13 J/K/mol
O [water] + COP(=O)([O-])OC.Cn1cc[n+](C)c1,excess molar enthalpy,[1],0 ± 0.055 kcal/mol
CCO [ethanol] + COP(=O)([O-])OC.Cn1cc[n+](C)c1,excess molar enthalpy,[1],0 ± 0.0086 kcal/mol
